Reference: US9452225B2, “GLP-1 prodrugs” (Novo Nordisk A/S, priority 2012, dated 2016)
Like-named read-outs stand apart in the source and are kept apart here. Numbered stars: 1 amine (or outer) side, 2 acyl side, 3 side chain; on linkers, the order of the positions; unused ones are H or OH. Side chains are listed from the residue outwards. Peptide text beside a SMILES is read from it. * marks the point of attachment. Decanoyl(10-(4-HOOC-PhO)) = O=C(O)c1ccc(OCCCCCCCCCC(=O)*)cc1; Lactoyl(3-(imidazol-4-yl)) = O=C([C@@H](O)Cc1c[nH]cn1)*; γGlu = O=C(O)[C@H](CCC(=O)[*:2])N[*:1]; AEEA = NCCOCCOCC(=O)O

Key:
[1] = target: T1, Dipeptidyl peptidase-4 (DPP-IV) (Homo sapiens, UniProt P27487); assay: Resistance to DPP-IV degradation; format: in vitro ADME; settings: for half-life: recombinant dipeptidyl peptidase-4 (DPP-IV), pH 7.4, incubation with DPP-IV, 37° C.; for In (concentration) of parent GLP-1 peptide drug: DPP-IV incubation 37° C.
T1 construct: purchased R&D Systems 1180-SE
T1 sequence (P27487 29-766 limits assumed): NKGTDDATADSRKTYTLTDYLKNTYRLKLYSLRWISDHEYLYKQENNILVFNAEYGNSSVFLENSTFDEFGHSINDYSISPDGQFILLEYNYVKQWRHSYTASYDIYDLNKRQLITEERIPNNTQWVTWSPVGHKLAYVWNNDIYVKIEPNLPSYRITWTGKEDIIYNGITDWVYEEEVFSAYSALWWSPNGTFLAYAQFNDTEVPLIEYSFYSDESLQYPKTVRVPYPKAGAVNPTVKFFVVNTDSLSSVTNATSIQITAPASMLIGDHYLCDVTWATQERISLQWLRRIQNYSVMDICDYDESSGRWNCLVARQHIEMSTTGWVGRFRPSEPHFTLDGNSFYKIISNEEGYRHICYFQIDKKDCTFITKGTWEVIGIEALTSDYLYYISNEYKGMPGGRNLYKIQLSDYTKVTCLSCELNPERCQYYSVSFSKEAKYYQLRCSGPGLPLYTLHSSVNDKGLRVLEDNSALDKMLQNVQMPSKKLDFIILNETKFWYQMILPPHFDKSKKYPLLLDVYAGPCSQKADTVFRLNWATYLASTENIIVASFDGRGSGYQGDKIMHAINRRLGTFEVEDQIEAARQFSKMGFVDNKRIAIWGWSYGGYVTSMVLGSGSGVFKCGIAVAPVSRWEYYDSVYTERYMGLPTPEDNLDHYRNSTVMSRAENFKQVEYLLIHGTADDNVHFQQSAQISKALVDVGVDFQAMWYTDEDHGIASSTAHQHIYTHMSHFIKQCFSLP
Description: The purpose of this experiment is to determine the degradation by Dipeptidyl peptidase-4 (DPP-IV) of the parent drugs of the prodrugs of the invention.
The stability of the parent GLP-1 drug of Example B2.1 was tested as described below.
HEPES Buffer (50 mM HEPES Buffer with 0.005% Tween20, pH 7.4)
10 ml 1 M HEPES+100 μl 10% Tween20 adjusted to pH 7.4 and diluted with MilliQ water ad 200 mL
1.0 mM in HEPES buffer 0.1% BSA (Sigma cat. no. A9418)
1.0 mM in hepes buffer pH 7.4
DPP-IV was Recombinant Dipeptidyl Peptidase, R&D Systems, cat no. 1180-SE
50 μl of DPP-IV (0.2 mg/mL), 25 mM MES, 0.7 M NaCl, pH 5.0
Add 200 μl 25 mM TRIS pH 8.0 to Stock vial (DPP-IV concentration 40 μg/mL). Just before use: 210 μl (40 μg/ml) is added 210 μl 50 mM HEPES (DPP-IV concentration 20 μg/mL)
Minimum 30 min, 37° C. with 600 μl 0.1% OVAlbumin. Then left overnight at 4° C. and washed times with 50 mM HEPES.
Minimum 150 min with HEPES buffer at 37° C.
The reactions were terminated by moving 25 μl of the sample into 150 μl cooled 1% TFA in EtOH. Samples were collected in a v-shaped 96-well plate (polypropylene, Costar 3957), (Cat no. cci-3957)). Samples were sealed and kept on ice until analyses.
Samples were diluted 5 times in 50% acetonitrile (1% formic acid) (20 μL+80 μL) and analysed with UPLC-MS.
The amounts of parent GLP-1 drug and DPP-IV cleaved drug were measured from the total ion counts and T½ was determined from a linear fit to the curve of ln (% parent GLP-1 drug) (Y) as a function of time (t), as follows: Y(t)=÷αt+k Math 3 T½=ln 2/α Math 4 T½ (÷BSA): 3466 min T½ (+0.001% BSA): 2311 min

[2] = target: T2, human GLP-1 receptor (Homo sapiens, UniProt P43220); assay: In vitro potency, AlphaScreen cAMP assay on membranes; format: biochemical; settings: cAMP formation, membranes of BHK467-12A cells
T2 construct: expressed in transfected cells; host or cells: BHK cells, clone FCW467-12A (parent line BHKTS13), membranes
T2 sequence (P43220 24-463): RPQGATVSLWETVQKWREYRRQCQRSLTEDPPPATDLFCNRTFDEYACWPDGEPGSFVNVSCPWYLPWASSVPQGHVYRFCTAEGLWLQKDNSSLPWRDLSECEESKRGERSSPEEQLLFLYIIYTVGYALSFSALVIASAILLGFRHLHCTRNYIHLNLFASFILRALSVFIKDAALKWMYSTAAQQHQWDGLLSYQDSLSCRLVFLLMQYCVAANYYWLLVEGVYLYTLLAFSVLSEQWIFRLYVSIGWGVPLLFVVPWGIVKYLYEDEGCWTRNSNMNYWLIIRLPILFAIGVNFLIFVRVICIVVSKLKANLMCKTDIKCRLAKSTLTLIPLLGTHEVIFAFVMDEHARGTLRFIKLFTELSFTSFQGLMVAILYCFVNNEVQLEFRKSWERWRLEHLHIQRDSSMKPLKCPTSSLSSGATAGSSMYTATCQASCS
Description: The purpose of this example is to test the activity, or potency, in vitro of, for example, the GLP-1 parent drugs of the prodrugs of the invention.
Purified plasma membranes from a stable transfected cell line, BHK467-12A (tk-ts13), expressing the human GLP-1 receptor were stimulated with the GLP-1 drug in question, and the potency of cAMP production was measured using the AlphaScreen™ cAMP Assay Kit from Perkin Elmer Life Sciences. The basic principle of The AlphaScreen Assay is a competition between endogenous cAMP and exogenously added biotin-cAMP. The capture of cAMP is achieved by using a specific antibody conjugated to acceptor beads.
A stable transfected cell line and a high expressing clone were selected for screening. The cells were grown at 5% CO2 in DMEM, 10% FCS, 1% Pen/Strep (Penicillin/Streptomycin) and preferably 0.5 (alternatively 1.0 mg/ml) of the selection marker G418.
Cells at approximate 80% confluence were washed twice with PBS and harvested with Versene (aqueous solution of the tetrasodium salt of ethylenediaminetetraacetic acid), centrifuged 5 min at 1000 rpm and the supernatant removed. The additional steps were all made on ice. The cell pellet was homogenised by the Ultrathurax for 20-30 s in 10 ml of Buffer 1 (20 mM Na-HEPES, 10 mM EDTA, pH=7.4), centrifuged 15 min at 20,000 rpm and the pellet resuspended in 10 ml of Buffer 2 (20 mM Na-HEPES, 0.1 mM EDTA, pH=7.4). The suspension was homogenised for 20-30 s and centrifuged 15 min at 20,000 rpm. Suspension in Buffer 2, homogenisation and centrifugation was repeated once and the membranes were resuspended in Buffer 2. The protein concentration was determined and the membranes stored at −80° C. until use.
The assay was performed in flat-bottom 96-well plates (Costar cat. no: 3693). The final volume per well was 50 μl.
AlphaScreen cAMP Assay Kit from Perkin Elmer Life Sciences (cat. No: 6760625M); containing Anti-cAMP Acceptor beads (10 U/μl), Streptavidin Donor beads (10 U/μl) and Biotinylated-cAMP (133 U/μl). […]

Question: `CC[C@H](C)[C@H](NC(=O)[C@H](Cc1ccccc1)NC(=O)[C@H](CCC(=O)O)NC(=O)[C@H](CCCNC(=N)N)NC(=O)[C@@H](NC(=O)[C@H](C)NC(=O)[C@H](CCC(N)=O)NC(=O)[C@H](CCC(=O)O)NC(=O)[C@H](CCC(=O)O)NC(=O)[C@H](CC(C)C)NC(=O)[C@H](Cc1ccc(O)cc1)NC(=O)[C@H](CCCCNC(=O)COCCOCCNC(=O)COCCOCCNC(=O)CC[C@H](NC(=O)CCCCCCCCCOc1ccc(C(=O)O)cc1)C(=O)O)NC(=O)[C@H](CO)NC(=O)[C@@H](NC(=O)[C@H](CC(=O)O)NC(=O)[C@H](CO)NC(=O)[C@@H](NC(=O)[C@H](Cc1ccccc1)NC(=O)[C@@H](NC(=O)CNC(=O)[C@H](CCC(=O)O)NC(=O)[C@H](C)NC(=O)[C@@H](O)Cc1c[nH]cn1)[C@@H](C)O)[C@@H](C)O)C(C)C)C(C)C)C(=O)N[C@@H](C)C(=O)N[C@@H](CCCCNC(=O)COCCOCCNC(=O)COCCOCCNC(=O)CC[C@H](NC(=O)CCCCCCCCCOc1ccc(C(=O)O)cc1)C(=O)O)C(=O)N[C@@H](CC(C)C)C(=O)N[C@H](C(=O)N[C@@H](CCCNC(=N)N)C(=O)NCC(=O)N[C@@H](CCCNC(=N)N)C(=O)NCC(=O)O)C(C)C` [Example B2.1] ({Lactoyl(3-(imidazol-4-yl))}-AEGTFTSDVSK([AEEA-AEEA-γGlu-Decanoyl(10-(4-HOOC-PhO))])YLEEQAVREFIAK([AEEA-AEEA-γGlu-Decanoyl(10-(4-HOOC-PhO))])LVRGRG-OH) was tested. Which half-life ([1]; +0.001% BSA, read-out: T½ (+0.001% BSA)) did it give?
Answer: Its half-life is 38.5 h.

Question: And the half-life ([1]; without BSA, read-out: T½ (÷BSA))?
Answer: Its half-life is 57.8 h.

Question: What about the “In (concentration) of parent GLP-1 peptide drug” value (“In (concentration)” for short) ([1]; with BSA, time 1.0 minutes) of the same compound?
Answer: The value was 4.61.

Question: What about the “In (concentration)” value ([1]; with BSA, time 32 minutes) of the same compound?
Answer: The value was 4.61.

Question: What about the “In (concentration)” value ([1]; with BSA, time 60 minutes) of the same compound?
Answer: The value was 4.58.

Question: What about the “In (concentration)” value ([1]; with BSA, time 120 minutes) of the same compound?
Answer: Its value is 4.40.

Question: And the “In (concentration)” value ([1]; with BSA, time 183 minutes)?
Answer: Its value is 4.58.

Question: What about the “In (concentration)” value ([1]; with BSA, time 1440 minutes) of the same compound?
Answer: Its value is 4.47.

Question: And the “In (concentration)” value ([1]; without BSA, time 1.0 minutes)?
Answer: The value was 4.61.

Question: What about the “In (concentration)” value ([1]; without BSA, time 32 minutes) of the same compound?
Answer: The value was 4.59.

Question: And the “In (concentration)” value ([1]; without BSA, time 60 minutes)?
Answer: Its value is 4.63.

Question: What about the “In (concentration)” value ([1]; without BSA, time 120 minutes) of the same compound?
Answer: Its value is 4.50.

Question: And the “In (concentration)” value ([1]; without BSA, time 183 minutes)?
Answer: The value was 4.64.

Question: What about the “In (concentration)” value ([1]; without BSA, time 1440 minutes) of the same compound?
Answer: The value was 4.45.

Question: What about the EC50 [2] of the same compound?
Answer: Its EC50 is 100 pM.
